Source: ChEMBL document CHEMBL4706476, “Novel Tetrahydropyrido[4,3-d]pyrimidines as Potent Inhibitors of Chaperone Heat Shock Protein 90” (J Med Chem, 2016)
Activity calls are given as the source filed them. The calls are words filed in the database; no cut-off is given here.

Tests used:
[1] = molecular target: T1, Heat shock protein HSP90 (Homo sapiens) (UniProt P07900+P08238); assay: Inhibition of HSP90 in human HCT-116 cells assessed as induction of HSP70 expression after 24 hrs by Western blot analysis; assay type: cell-based; settings: dose 0.01-3 µM
Mus musculus [2] = assay: In vivo inhibition of HSP90 in nude mouse xenografted with human HCT-116 cells assessed as decrease in Akt protein level in tumor at 40 to 60 mg/kg, ip administered every other day for 16 days and measured after 12 hrs post last dose by Western blot analysis; settings: dose 40-60 mg/kg, time 16.0 day
Mus musculus [3] = assay: In vivo inhibition of HSP90 in nude mouse xenografted with human HCT-116 cells assessed as upregulation of HSP90 protein expression in tumor at 40 to 60 mg/kg, ip administered every other day for 16 days and measured after 12 hrs post last dose by Western blot analysis; settings: dose 40-60 mg/kg, time 16.0 day
Mus musculus [4] = assay: In vivo inhibition of HSP90 in nude mouse xenografted with human HCT-116 cells assessed as upregulation of HSP70 protein expression in tumor at 40 to 60 mg/kg, ip administered every other day for 16 days and measured after 12 hrs post last dose by Western blot analysis; settings: dose 40-60 mg/kg, time 16.0 day
[5] = molecular target: T1, Heat shock protein HSP90 (Homo sapiens); assay: Inhibition of HSP90 in human HCT-116 cells assessed as reduction in phosphorylated Erk after 24 hrs by Western blot analysis; assay type: cell-based; settings: dose 0.01-3 µM
[6] = molecular target: T1, Heat shock protein HSP90 (Homo sapiens); assay: Inhibition of HSP90 in human HCT-116 cells assessed as reduction in Erk protein expression after 24 hrs by Western blot analysis; assay type: cell-based; settings: dose 0.01-3 µM
Mus musculus [7] = assay: In vivo inhibition of HSP90 in nude mouse xenografted with human HCT-116 cells assessed as decrease in Erk protein level in tumor at 40 to 60 mg/kg, ip administered every other day for 16 days and measured after 12 hrs post last dose by Western blot analysis; settings: dose 40-60 mg/kg, time 16.0 day
Rattus norvegicus [8] = assay: Ex vivo inhibition of HSP90 in Sprague-Dawley rat assessed as up regulation of HSP70 expression in retina at 20 mg/kg, iv administered for 2 consecutive days and measured 24 hrs post last dose by immunohistochemistry analysis; assay type: functional, organism-based; settings: time 3.0 day
[9] = molecular target: T1, Heat shock protein HSP90 (Homo sapiens); assay: Inhibition of HSP90 in human HCT-116 cells assessed as reduction in AKT protein expression after 24 hrs by Western blot analysis; assay type: cell-based; settings: dose 0.01-3 µM
Rattus norvegicus [10] = assay: Ex vivo inhibition of HSP90 in Sprague-Dawley rat assessed as up regulation of HSP70 expression in retina at 20 mg/kg, iv administered for 2 consecutive days and measured 24 hrs post last dose by Western blot analysis; assay type: functional, organism-based; settings: time 3.0 day
HCT-116 = assay: Antitumor activity against human HCT-116 cells xenografted in nude mouse assessed as decrease in tumor cells at 40 to 60 mg/kg, ip administered every other day for 16 days by hematoxylin and eosin staining based assay; settings: dose 40-60 mg/kg, time 16.0 day
[11] = Selectivity ratio of IC50 for inhibition of FITC-geldanamycin binding to N-terminal GRP94 (unknown origin) to IC50 for inhibition of FITC-geldanamycin binding to N-terminal HSP90alpha (unknown origin)
[12] = Ocular toxicity in Sprague-Dawley rat retina damage model assessed as induction of retinal cell death at 10 mg/kg, iv administered for 2 consecutive days by TUNEL staining based analysis; assay type: organism-based; settings: in vivo, 48 h, time 2 day
Rattus norvegicus [13] = assay: Ex vivo inhibition of HSP90 in Sprague-Dawley rat assessed as up regulation of HSP70 expression in retina at 10 mg/kg, iv administered for 2 consecutive days and measured 24 hrs post last dose by Western blot analysis; assay type: functional, organism-based
Rattus norvegicus [14] = assay: Ex vivo inhibition of HSP90 in Sprague-Dawley rat assessed as up regulation of HSP70 expression in retina at 10 mg/kg, iv administered for 2 consecutive days and measured 24 hrs post last dose by immunohistochemistry analysis; assay type: functional, organism-based; settings: time 3.0 day

| Compound | inhibition [1] | inhibition (Mus musculus [2]) | inhibition (Mus musculus [3]) | inhibition (Mus musculus [4]) | inhibition [5] | inhibition [6] | inhibition (Mus musculus [7]) | inhibition (Rattus norvegicus [8]) | inhibition [9] | inhibition (Rattus norvegicus [10]) | Activity (HCT-116) | Ratio IC50 [11] | Activity [12] | inhibition (Rattus norvegicus [13]) | inhibition (Rattus norvegicus [14]) |
| --- | --- | --- | --- | --- | --- | --- | --- | --- | --- | --- | --- | --- | --- | --- | --- |
| CCNc1nc(OCCOC)nc2c1CN(C(=O)c1cc(C(C)C)c(O)cc1O)CC2 | Dose-dependent effect | Active | Active | Active | Dose-dependent effect | Dose-dependent effect | Active | inactive | Dose-dependent effect | inactive | Active | 26 | – | – | – |
| CCNC(=O)c1noc(-c2cc(C(C)C)c(O)cc2O)c1-c1ccc(CN2CCOCC2)cc1 [LUMINESPIB] | – | – | – | – | – | – | – | – | – | – | – | – | Toxic | Active | Active |
